Values of other authors as cited in paper PMC2913283 (Bioconjugate chemistry, 2010).

Details: initial studies

stability in vitro: not stable in vitro
Substance: Diethylenetriaminepenatacetic acid-(DTPA-Al^18F) complexes
